Experimental data taken from PMC5762338, “A novel orally available Syk/Src/Jak2 inhibitor, SKLB-850, showed potent anti-tumor activities in B cell lymphoma (BCL) models” (Oncotarget, 2017).

Experiments:
[1] = tested on: HBL-1 cells; assay: Apoptosis assay, AnnexinV-FITC/propidium iodide FCM; format: cell-based, Human; conditions: HBL-1, treatment for 18 hours (legend: 24 hours)
Description: Figure 1 The chemical structure of SKLB-850 and its anti-tumor effects in vitro (A) The chemical structure of SKLB-850. (B and C) Apoptosis of Ramos cells induced by SKLB-850. Cells were treated by vehicle, R788 or indicated concentrations of compounds. […]
The ability of SKLB-850 to induce apoptosis of BCL cells was analyzed by FCM. […]
Flow cytometry (FCM) assays were performed to investigate the apoptosis of Ramos and HBL-1 cells induced by SKLB-850. […] Cell apoptosis was analyzed with a flow cytometer (BD FACSCalibur, BD, USA).

[2] = tested on: B-cell lymphoma samples from BCL patients; assay: Apoptosis of B-cell lymphoma samples from BCL patients, FCM; format: cell-based, Human; conditions: BCL patient samples, 24 hours, concentration not given
Excerpt: The ability of inducing apoptosis of SKLB-850 in tumor tissues was examined by TUNEL. […] We then examined apoptotic tumor cells in B-cell lymphoma samples from BCL patients after SKLB-850 treatment by FCM. As shown in Figure 6C and 6F, SKLB-850 induced cell apoptosis (14.10 ± 4.04%), and R788 had the same effect but relatively weak (7.60 ± 0.52%). To better understand the mechanism of antitumor activities in vivo, Ki67 and CD20 in mouse tumor tissues were detected by immunohischemistry; Ki67 was a marker of proliferation in the diagnosis of tumors and CD20 was highly expressed in B cell lymphomas.
Figure 6 SKLB-850 inhibited tumor growth by inducing apoptosis of tumor tissues from the Ramos model and BCL samples from patients (A and D) TUNEL immunofluorescent staining of tumor tissues from the Ramos model (n-6 mice per group). (B and E) Immunohistochemical staining analyses of Ki67 and CD20 in tumor tissues from the Ramos model. (C and F) Apoptosis of tumor cells from the BCL patients induced by SKLB-850. Tumor tissues from BCL patients were treated with a series of concentrations of SKLB-850 or R788, and stained with AnnexinV-FITC and propidium iodide, then analyzed with a flow cytometer. […]
Human lymph nodes were collected aseptically from B-cell lymphoma patients (n = 4 for both groups, Supplementary Table 1). […] Cell apoptosis was analyzed with a flow cytometer (BD FACS Calibur, BD, USA).

| SMILES | percentages of apoptotic cells (in words) [1] | cell apoptosis [2] |
| --- | --- | --- |
| CN1CCN(c2ccc(Nc3ncc(F)c(Nc4ccc(Cl)cc4C(N)=O)n3)cc2)CC1 [SKLB-850, 5-chloro-2-((5-fluoro-2-((4-(4-methylpiperazin-1-yl)phenyl)amino)pyrimidin-4-yl)amino) benzamide] | dose-dependently increased | 14.10 ± 4.04% |
| COc1cc(Nc2ncc(F)c(Nc3ccc4c(n3)N(COP(=O)(O)O)C(=O)C(C)(C)O4)n2)cc(OC)c1OC [R788, reference compound] | induced apoptosis but obviously much weaker | 7.60 ± 0.52% |
